Patent publication US20260049088A1, “TRICYCLIC HETEROCYCLIC DERIVATIVES, COMPOSITIONS AND USES THEREOF” (Danatlas Pharmaceuticals Co., Ltd., priority 2023, published 2026)

Molecular target: T1, hPARG (Homo sapiens, UniProt Q86W56)
T1 construct: made in house; host or cells: E. coli
Assay: PARG enzymatic activity assay (HTRF)
Format: biochemical
Conditions: C-terminal His6-tag hPARG 65 pM, biotinylated-NAD ribosylated PARP1 substrate 8 nM
Method in brief: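 His6-tagged hPARG from E. coli (65 pM final) preincubated 60 min RT with compound (10-point 4-fold dilution), then 8 nM biotinylated NAD-ribosylated PARP1 added for 10 min RT in Tris pH 7.4 buffer with EDTA, EGTA, DTT, KCl. HTRF detection (Eu-streptavidin/anti-His XL665, 620/665 nm); IC50 from 4-parameter fit against DMSO and no-enzyme controls.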

T1 sequence (Q86W56 whole entry): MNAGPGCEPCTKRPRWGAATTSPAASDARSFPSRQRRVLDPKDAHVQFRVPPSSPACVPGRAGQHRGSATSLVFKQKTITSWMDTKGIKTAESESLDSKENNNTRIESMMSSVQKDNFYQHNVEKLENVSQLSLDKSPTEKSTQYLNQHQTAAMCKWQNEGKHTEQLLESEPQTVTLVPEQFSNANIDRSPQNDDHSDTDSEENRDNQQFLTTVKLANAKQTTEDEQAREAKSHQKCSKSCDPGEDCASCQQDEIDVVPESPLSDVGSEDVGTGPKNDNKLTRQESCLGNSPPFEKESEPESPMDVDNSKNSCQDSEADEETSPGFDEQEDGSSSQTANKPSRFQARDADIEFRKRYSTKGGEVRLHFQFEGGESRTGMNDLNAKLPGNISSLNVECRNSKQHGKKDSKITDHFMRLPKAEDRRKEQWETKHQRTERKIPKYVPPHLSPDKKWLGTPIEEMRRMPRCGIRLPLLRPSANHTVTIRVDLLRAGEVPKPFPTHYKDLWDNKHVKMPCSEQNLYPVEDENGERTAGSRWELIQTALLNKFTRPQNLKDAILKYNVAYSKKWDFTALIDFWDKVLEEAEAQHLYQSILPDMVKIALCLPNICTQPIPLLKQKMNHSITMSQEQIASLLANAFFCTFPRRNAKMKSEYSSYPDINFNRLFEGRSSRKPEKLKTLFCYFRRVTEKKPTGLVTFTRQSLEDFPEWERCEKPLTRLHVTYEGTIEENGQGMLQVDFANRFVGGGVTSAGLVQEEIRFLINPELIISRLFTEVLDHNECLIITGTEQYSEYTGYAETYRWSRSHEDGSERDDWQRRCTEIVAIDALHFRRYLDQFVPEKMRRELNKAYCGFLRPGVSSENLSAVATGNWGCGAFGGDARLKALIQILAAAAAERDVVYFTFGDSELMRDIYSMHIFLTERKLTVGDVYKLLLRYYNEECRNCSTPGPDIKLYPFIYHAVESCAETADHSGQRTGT

Structure (SMILES) | IC50 [µM]
CN(C)C(=O)COc1ncnc2c1c1ccc(S(=O)(=O)NC3(C#N)CC3)cc1n2-c1nnc(C(F)F)s1 [Example 6, 2-((7-(N-(1-Cyanocyclopropyl)sulfamoyl)-9-(5-(difluoromethyl)-1,3,4-thiadiazol-2-yl)-9H-pyrimido[4,5-b]indol-4-yl)oxy)-N,N-dimethylacetamide] | 0.1 to 1
CN(CCN1CCOCC1)c1ncnc2c1c1ccc(S(=O)(=O)NC3(C#N)CC3)cc1n2-c1nnc(C(F)F)s1 [Example 13, N-(1-cyanocyclopropyl)-9-(5-(difluoromethyl)-1,3,4-thiadiazol-2-yl)-4-(methyl(2-morpholinoethyl)amino)-9H-pyrimido[4,5-b]indole-7-sulfonamide] | ≤ 0.1
CN(Cc1ccncc1)c1ncnc2c1c1ccc(S(=O)(=O)NC3(C#N)CC3)cc1n2-c1nnc(C(F)F)s1 [Example 21, N-(1-Cyanocyclopropyl)-9-(5-(difluoromethyl)-1,3,4-thiadiazol-2-yl)-4-(methyl(pyridin-4-ylmethyl)amino)-9H-pyrimido[4,5-b]indole-7-sulfonamide] | ≤ 0.1
N#CC1(NS(=O)(=O)c2ccc3c4c(OCC5CCOC5)ncnc4n(-c4nnc(C(F)F)s4)c3c2)CC1 (stereo not drawn) [Example 9, N-(1-Cyanocyclopropyl)-9-(5-(difluoromethyl)-1,3,4-thiadiazol-2-yl)-4-((tetrahydrofuran-3-yl)methoxy)-9H-pyrimido[4,5-b]indole-7-sulfonamide] | ≤ 0.1
N#CC1(NS(=O)(=O)c2ccc3c4c(O[C@@H]5CCOC5)ncnc4n(-c4nnc(C(F)F)s4)c3c2)CC1 [Example 8, (R)-N-(1-Cyanocyclopropyl)-9-(5-(difluoromethyl)-1,3,4-thiadiazol-2-yl)-4-((tetrahydrofuran-3-yl)oxy)-9H-pyrimido[4,5-b]indole-7-sulfonamide] | ≤ 0.1
N#CC1(NS(=O)(=O)c2ccc3c4c(OCC(=O)N5CCOCC5)ncnc4n(-c4nnc(C(F)F)s4)c3c2)CC1 [Example 11, N-(1-Cyanocyclopropyl)-9-(5-(difluoromethyl)-1,3,4-thiadiazol-2-yl)-4-(2-morpholino-2-oxoethoxy)-9H-pyrimido[4,5-b]indole-7-sulfonamide] | ≤ 0.1

Next, values leading:

IC50 [µM] | Structure (SMILES)
≤ 0.1 | N#CC1(NS(=O)(=O)c2ccc3c4c(N5CCn6cncc6C5)ncnc4n(-c4nnc(C(F)F)s4)c3c2)CC1 [Example 45, N-(1-Cyanocyclopropyl)-9-(5-(difluoromethyl)-1,3,4-thiadiazol-2-yl)-4-(5,6-dihydroimidazo[1,5-a]pyrazin-7(8H)-yl)-9H-pyrimido[4,5-b]indole-7-sulfonamide]
≤ 0.1 | CCN(CC)[C@@H]1CCN(c2ncnc3c2c2ccc(S(=O)(=O)NC4(C#N)CC4)cc2n3-c2nnc(C(F)F)s2)C[C@H]1F [Example 35, N-(1-Cyanocyclopropyl)-4-((3R,4R)-4-(diethylamino)-3-fluoropiperidin-1-yl)-9-(5-(difluoromethyl)-1,3,4-thiadiazol-2-yl)-9H-pyrimido[4,5-b]indole-7-sulfonamide]
≤ 0.1 | CN(CC1CCOC1)c1ncnc2c1c1ccc(S(=O)(=O)NC3(C#N)CC3)cc1n2-c1nnc(C(F)F)s1 (stereo not drawn) [Example 23, N-(1-Cyanocyclopropyl)-9-(5-(difluoromethyl)-1,3,4-thiadiazol-2-yl)-4-(methyl((tetrahydrofuran-3-yl)methyl)amino)-9H-pyrimido[4,5-b]indole-7-sulfonamide]
0.1 to 1 | CN(CCN1CCCS1(=O)=O)c1ncnc2c1c1ccc(S(=O)(=O)NC3(C#N)CC3)cc1n2-c1nnc(C(F)F)s1 [Example 72, N-(1-Cyanocyclopropyl)-9-(5-(difluoromethyl)-1,3,4-thiadiazol-2-yl)-4-((2-(1,1-dioxidoisothiazolidin-2-yl)ethyl)(methyl)amino)-9H-pyrimido [4,5-b]indole-7-sulfonamide]
≤ 0.1 | CCN(CC)[C@H]1CCN(c2ncnc3c2c2ccc(S(=O)(=O)NC4(C#N)CC4)cc2n3-c2nnc(C(F)F)s2)C[C@H]1F [Example 34, N-(1-Cyanocyclopropyl)-4-((3R,4S)-4-(diethylamino)-3-fluoropiperidin-1-yl)-9-(5-(difluoromethyl)-1,3,4-thiadiazol-2-yl)-9H-pyrimido[4,5-b]indole-7-sulfonamide]
0.1 to 1 | N#CC1(NS(=O)(=O)c2ccc3c4c(N5C[C@H]6C[C@@H]5CC6(F)F)ncnc4n(-c4nnc(C(F)F)s4)c3c2)CC1 [Example 40, N-(1-Cyanocyclopropyl)-4-((1R,4R)-5,5-difluoro-2-azabicyclo [2.2.1]heptan-2-yl)-9-(5-(difluoromethyl)-1,3,4-thiadiazol-2-yl)-9H-pyrimido[4,5-b]indole-7-sulfonamide]
≤ 0.1 | CN(CC1COCCO1)c1ncnc2c1c1ccc(S(=O)(=O)NC3(C#N)CC3)cc1n2-c1nnc(C(F)F)s1 (stereo not drawn) [Example 69, 4-(((1,4-Dioxan-2-yl)methyl)(methyl)amino)-N-(1-cyanocyclopropyl)-9-(5-(difluoromethyl)-1,3,4-thiadiazol-2-yl)-9H-pyrimido[4,5-b]indole-7-sulfonamide]
≤ 0.1 | CCN(CC)[C@@H]1CCN(c2ncnc3c2c2ccc(S(=O)(=O)NC4(C#N)CC4)cc2n3-c2nnc(C(F)F)s2)C[C@@H]1OC [Example 50, N-(1-Cyanocyclopropyl)-4-((3S,4R)-4-(diethylamino)-3-methoxypiperidin-1-yl)-9-(5-(difluoromethyl)-1,3,4-thiadiazol-2-yl)-9H-pyrimido[4,5-b]indole-7-sulfonamide]
≤ 0.1 | CCN1CCCC12CCN(c1ncnc3c1c1ccc(S(=O)(=O)NC4(C#N)CC4)cc1n3-c1nnc(C(F)F)s1)CC2 [Example 52, N-(1-Cyanocyclopropyl)-9-(5-(difluoromethyl)-1,3,4-thiadiazol-2-yl)-4-(1-ethyl-1,8-diazaspiro[4.5]decan-8-yl)-9H-pyrimido[4,5-b]indole-7-sulfonamide]
